Measured values: article PMC9818267, “Brain Natriuretic Peptide Protects Cardiomyocytes from Apoptosis and Stimulates Their Cell Cycle Re-Entry in Mouse Infarcted Hearts” (Cells, 2022)
No end group written: not given here.

Columns and labels:
cardiomyocytes (CMs) [1] = assay: qRT-PCR on CMs isolated from treated hearts; format: in vivo, mouse; settings: CMs from border area of infarcted hearts 10 days after surgery, BNP vs saline
cardiomyocytes (CMs) [2] = assay: CM nucleation status and cross-sectional area; format: in vivo, mouse; settings: vs saline
Procedure: After 25 min sedimentation, CMs were used for molecular analysis, Western blot analysis, flow cytometry analysis or fixed with 2.5% PFA 15 min at room temperature (RT) and stained with DAPI to evaluate the frequency of mono and bi-nucleated CMs.
CM area was assessed by α actinin and laminin stainings and image J software (1.53t version from the 24.08.2022, Mac OX X, Bethesda, MD, USA) for processing using CIF outliner cell Plugin. Only CMs with circularity >0.5 were considered.

ERK [3] = assay: Western blot pERK/ERK in CMs isolated from BNP-treated hearts; format: in vivo, mouse; settings: CMs isolated from BNP-treated adult unmanipulated hearts (injection 2–3 h before isolation), vs saline
Procedure: (§1) BNP was injected into infarcted adults, and unmanipulated neonatal and adult mice. Directly after surgery, NaCl (saline) or BNP (1.3 µg/20 g in 20 µL) was injected into the left ventricle cavity. At 24 h after MI, mice were intraperitoneal (ip) injected with BNP (2 µg/20 g mice) or saline every 2 days. C57BL/6 mice were sacrificed 1- and 14 days post-MI and Myh6 MerCreMer mice were sacrificed 14 days post-MI (Figure 1A). Neonatal C57BL/6 mice (3 days after birth) were injected ip with NaCl or BNP every two days (1 µg/2 g; Bachem; synthetic mouse BNP (1–45) peptide (catalog number H-7558)). Mice were sacrificed 11 days after birth (Figure 1B). Eight week old C57 BL/6 mice or Myh6 MerCreMer unmanipulated mice were injected ip with BNP (2 µg/20 g mice) or NaCl every two days (Figure 1C). Two weeks after the first injection, mice were sacrificed. To assess for the implication of the ERK signaling pathway in the BNP effect on CMs, PD0325901 (60 µg/20 g mice in 80 µL) was administered by gavage in adult unmanipulated mice 1 h before BNP injection (2 µg/20 g mice).
CM isolations were performed thanks to the Langendorff-Free method. […]
Total proteins were extracted from CMs isolated from adult infarcted and unmanipulated neonatal and adult hearts. […] The signal was detected and quantified with the Odyssey infrared imaging system (LI-COR. Biosciences, Bad Homburg, Germany). […]

cardiomyocytes (CMs) [4] = assay: qRT-PCR on CMs isolated from treated hearts; format: in vivo, mouse
Procedure: as §1
(§2) CM isolations were performed thanks to the Langendorff-Free method. […] Thereafter, the heart was removed from the chest and the left ventricle was perfused with enzymatic solution containing collagenase II (120 U/mL), collagenase IV (120 U/mL) (Worthington, Biochemical Corporation, USA) and protease XIV (0.05 mg/mL or 0.175 U/mL) (Sigma-Aldrich, Merck, Darmstadt, Germany). In each experiment, a full digestion of the heart was obtained. After digestion, cardiac cells were dissociated by gentle pipetting, filtered and collected after 25 min sedimentation. For infarcted hearts, the tissue was separated into the three zones (ZI, BZ and RZ). The three different areas were weighted before gentle pipetting.
qRT-PCR were performed using the SYBR Premix Ex Taq polymerase (Takara Bio Inc., Shiga, Japan) with the ViiA^TM7 Instrument (Applied Biosystems, Waltham, MA, USA). Total RNA was isolated from heart tissue, CM cell cultures and isolated CMs using TRI-Reagent (Zymo Research, Orange County, CA, USA). cDNA was synthesized from RNA using PrimeScript RT reagent kit (Takara Bio Inc.). Polymerase chain reactions (PCR) were performed using the SYBR Premix Ex Taq polymerase (Takara Bio Inc.) with the ViiA^TM7 Instrument (Applied Biosystems). Results were obtained after 40 cycles of a thermal step protocol consisting of an initial denaturation of 95 °C (1 s), followed by 60 °C (20 s) of elongation (α-skeletal actin has an elongation time of 30 s at 60 °C). The sequences of primers were reported in Supplementary File S2. All results were normalized with the 18S housekeeping gene (Δ CT values). Means of ΔΔ CT (Δ CTBNP–Δ CTsaline) values (versus untreated cells or NaCl treated mice) were calculated and results were represented as 2^−ΔΔCT. Statistics were performed on ΔΔ CT individual values. SEM fold increase was calculated using 2^−ΔΔ CT high values − 2^−means of ΔΔCT [13].

cardiomyocytes (CMs) [5] = assay: Cardiomyocyte isolation (Langendorff-Free method) and counting; format: in vivo, mouse
Procedure: as §1, §2
Total CM cell numbers were counted before sedimentation by two different people and in blinded experiments. The CMs were easily identified based on their size and on Troponin I expression (for all experiments with flow cytometry analysis). Round and rod-shaped CMs were counted and their numbers related to the heart, to the mg of tissue and also to the control hearts (saline-injected hearts) always performed in parallel the same day than BNP-treated hearts (i.e., with the same digestion buffer).

ERK [6] = assay: Western blot pERK/ERK in adult CMs stimulated in vitro; format: cell-based, mouse; settings: adult CMs stimulated with BNP for 2–3 h in vitro, vs untreated
Procedure: as §2
(§3) Total proteins were extracted from CMs isolated from adult infarcted and unmanipulated neonatal and adult hearts. Proteins were transferred to nitrocellulose membranes (Biorad) before incubation with primary antibodies overnight at 4 °C. Secondary antibodies were added 1 h at RT in the dark (Supplementary File S1). The signal was detected and quantified with the Odyssey infrared imaging system (LI-COR. Biosciences, Bad Homburg, Germany). All results were normalized to the tubulin protein level or to the total protein level thanks to stainings with the Revert 700 Total protein Stain (LI-COR).

phospholamban (PLB) = assay: Western blot pPLB/PLB in adult CMs stimulated in vitro; format: cell-based, mouse; settings: adult CMs stimulated with BNP for 2–3 h in vitro, vs untreated
Procedure: as §2, §3

[7] = CMs from border area of infarcted hearts, BNP vs saline
[8] = CMs from unmanipulated adult hearts, BNP vs saline

Substance: Brain Natriuretic Peptide (SQGSTLRVQQRPQNSKVTHISSCFGHKIDRIGSVSRLGCNALKLL; not fully specified; ends and bridges not checked; UniProt P40753 77-121, looked up) [BNP, synthetic mouse BNP (1–45) peptide (Bachem, catalog number H-7558)]
- myh7 mRNA level increase (cardiomyocytes (CMs) [1]): 2.7 ×
- percentages of mononucleated CMs (cardiomyocytes (CMs) [2]; all BNP-treated hearts (infarcted, neonatal, adult)): increased
- frequency of small CMs (cross-sectional area) (cardiomyocytes (CMs) [2]; all areas of BNP-treated infarcted hearts): significantly higher
- pERK/ERK ratio increase (ERK [3]): 1.6 ×
- hearts with increased cyclin A2 and B2 mRNA in isolated CMs (cardiomyocytes (CMs) [4]; CMs from BZ of BNP-treated infarcted hearts, vs saline): 4 out of 8
- mRNA expression of myh7, acta1, hif1α (cardiomyocytes (CMs) [4]; CMs from RZ of BNP-treated infarcted hearts (data not shown)): No difference
- acta1 mRNA level increase (cardiomyocytes (CMs) [4]; [7]): 2 ×
- hif1α mRNA level increase (cardiomyocytes (CMs) [4]; [7]): 1.4 ×
- hif1α mRNA level increase (cardiomyocytes (CMs) [4]; CMs from neonatal BNP-treated hearts, vs saline): 1.5 ×
- acta1 mRNA level increase (cardiomyocytes (CMs) [4]; [8]): 1.4 ×
- hif1α mRNA level increase (cardiomyocytes (CMs) [4]; [8]): 1.8 ×
- myh7 mRNA level increase (cardiomyocytes (CMs) [4]; [8]): 1.9 ×
- mRNAs coding for cyclins E1, A2 or B2 (cardiomyocytes (CMs) [4]; CMs isolated from all neonatal BNP-treated hearts, vs saline): increased levels
- CM isolations with increased cyclin A2 or B2 mRNA (cardiomyocytes (CMs) [4]; unmanipulated adult BNP-treated hearts, vs saline): 5 out of 7
- CM number per mg tissue (cardiomyocytes (CMs) [5]; BZ and RZ of infarcted hearts, BNP vs saline): No change
- CM cell number per heart (cardiomyocytes (CMs) [5]; BZ or RZ of infarcted hearts, BNP vs saline): No increase
- increase of number of CMs per mg tissue (cardiomyocytes (CMs) [5]; ZI of infarcted hearts, BNP vs saline): 2 fold
- increase of number of CMs related to saline-injected littermates (cardiomyocytes (CMs) [5]; ZI of infarcted hearts, same-day isolation with same enzymatic cocktail): 2.2 fold
- increase of total number of CMs per heart (cardiomyocytes (CMs) [5]; infarct area (ZI) of infarcted adult hearts, BNP 2 µg/20 g ip every 2 days, vs saline): 81%
- CM cell number in NPR-A deficient hearts (cardiomyocytes (CMs) [5]; unmanipulated adult NPR-A −/− mice, saline n = 4, BNP n = 3): did not change
- increase of number of CMs related to saline-injected littermates (cardiomyocytes (CMs) [5]; unmanipulated adult hearts): 28.5%
- increase of total number of CMs per heart (cardiomyocytes (CMs) [5]; unmanipulated adult hearts, BNP 2 µg/20 g ip every 2 days for 2 weeks, vs saline): 19%
- increase of number of CMs per mg tissue (cardiomyocytes (CMs) [5]; unmanipulated adult hearts, BNP vs saline): 26%
- number of CMs in the presence of ERK inhibitor (cardiomyocytes (CMs) [5]; unmanipulated adult mice, PD0325901 (60 µg/20 g) 1 h before each BNP injection, 2 weeks, n = 5 per group): did not increase
- increase of number of CMs related to saline-injected littermates (cardiomyocytes (CMs) [5]; unmanipulated neonatal hearts): 23%
- increase of total number of CMs per heart (cardiomyocytes (CMs) [5]; unmanipulated neonatal hearts, BNP 1 µg/2 g ip every 2 days from day 3, sacrifice day 11, vs saline): 18%
- increase of number of CMs per mg tissue (cardiomyocytes (CMs) [5]; unmanipulated neonatal hearts, BNP vs saline): 44%
- pERK/ERK ratio increase (ERK [6]): 1.9 ×
- pPLB/PLB ratio increase (phospholamban (PLB)): 2.1 ×
